{
  "source": "patent US20150050371A1",
  "about": "“Extract Formulations of Rhodamnia Cinerea And Uses Thereof” (BIOTROPICS MALAYSIA BERHAD, priority 2012, published 2015)",
  "system": "normal male Wistar rats",
  "assay": "Acute Starch Tolerance Test (STT), glycemia after oral wheat starch",
  "format": "in vivo, rat",
  "conditions": "5 mg/kg oral",
  "description": "An acute Starch Tolerance Test (STT) was performed by the administration by oral gavage of a 7.5% purified wheat starch solution at 1.5 g/kg of body weight to normal male Wistar rats. The effect of a concomitantly administered hot water extract formulation from Rhodamnia cinerea leaves (BTP-00167-14; ref. example 1.2) on the glycemic index was measured at different doses orally administered (50 and 200 mg/kg of body weight). The extract formulation BTP-00167-14 was administered by oral route concomitantly with wheat starch solutions. Glycemia was measured before and 15, 30, 60, 90, and 120 min after mixture administration. The positive control group received acarbose at 5 mg/kg of body weight together with the starch. The actual volume administered to each rat was calculated and adjusted based on the most recent body weight of each animal. STT onset was between 12:00 p.m. (noon) and 1:00 p.m. on animals fasted overnight. Blood samples (one drop) were collected via the tail vein for glucose determination using a hand-held glucometer before and 15, 30, 60, 90, and 120 min after starch administration. Seven-week old rats weighing around 135 g were used for the experiment. One day before the test, rats were randomly assigned to the different experimental groups. Delta glycemia values were calculated by subtraction of the pre-STT glycemia values (Time 0). Values represent average (i.e. mean) values.",
  "note": "Marks after values point to notes of the source that are not given here.",
  "data": [
    {"smiles": "C[C@H]1O[C@H](O[C@H]2[C@H](O)[C@@H](O)[C@@H](O[C@H]3[C@H](O)[C@@H](O)C(O)O[C@@H]3CO)O[C@@H]2CO)[C@H](O)[C@@H](O)[C@@H]1N[C@H]1C=C(CO)[C@@H](O)[C@H](O)[C@H]1O", "note": "(stereo partly drawn) [Acrabose, acarbose]", "values": [
      {"measurement": "Glycemia 15 min", "setting": "15 min after starch", "value": "72.4** mg/dL"},
      {"measurement": "Glycemia 30 min", "setting": "30 min after starch", "value": "83.7** mg/dL"},
      {"measurement": "Glycemia 60 min", "setting": "60 min after starch", "value": "71.7** mg/dL"},
      {"measurement": "Glycemia 90 min", "setting": "90 min after starch", "value": "66.0** mg/dL"},
      {"measurement": "Glycemia 120 min", "setting": "120 min after starch", "value": "61.9** mg/dL"},
      {"measurement": "Glycemia 0 min", "setting": "before administration", "value": 55.0, "unit": "mg/dL"}
    ]}
  ]
}
